#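 Where inhibition never reached the appropriate level, the endpoint shown equals the highest concentration tested. Otherwise, values were interpolated linearly from a five-concentration, 48-hour dose response in 96-well plates. GI50: concentration for 50% inhibition of growth. TGI marks complete inhibition of growth.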
# What was measured:
# Experiment in all cases: NCI-60 cell line screen, 48 h
# KM12 colon = tested on: KM12 colon
# DU-145 prostate = tested on: DU-145 prostate
# RXF 393 renal = tested on: RXF 393 renal
# COLO 205 colon = tested on: COLO 205 colon
# NCI-H522 lung = tested on: NCI-H522 lung
# A498 renal = tested on: A498 renal
# SF-295 CNS = tested on: SF-295 CNS
# SW-620 colon = tested on: SW-620 colon
# NCI-H23 lung = tested on: NCI-H23 lung
# PC-3 prostate = tested on: PC-3 prostate
# HCC-2998 colon = tested on: HCC-2998 colon
# SR leukemia = tested on: SR leukemia
# OVCAR-3 ovarian = tested on: OVCAR-3 ovarian
# HCT-116 colon = tested on: HCT-116 colon
# HOP-62 NSCLC = tested on: HOP-62 NSCLC
# SF-539 CNS = tested on: SF-539 CNS
# SN12C renal = tested on: SN12C renal
# BT-549 breast = tested on: BT-549 breast
# NCI/ADR-RES ovarian = tested on: NCI/ADR-RES ovarian
# A549 NSCLC = tested on: A549 NSCLC
# NCI-H460 lung = tested on: NCI-H460 lung
# 786-0 renal = tested on: 786-0 renal
# MDA-MB-231 breast = tested on: MDA-MB-231 breast
# SK-OV-3 ovarian = tested on: SK-OV-3 ovarian
# OVCAR-4 ovarian = tested on: OVCAR-4 ovarian
# SNB-75 CNS = tested on: SNB-75 CNS
# U251 CNS = tested on: U251 CNS
# OVCAR-8 ovarian = tested on: OVCAR-8 ovarian
# HL-60(TB) leukemia = tested on: HL-60(TB) leukemia
# UO-31 renal = tested on: UO-31 renal
# SK-MEL-2 melanoma = tested on: SK-MEL-2 melanoma
# UACC-62 melanoma = tested on: UACC-62 melanoma
# NCI-H226 lung = tested on: NCI-H226 lung
# SNB-19 CNS = tested on: SNB-19 CNS
# IGROV1 ovarian = tested on: IGROV1 ovarian
# SK-MEL-5 melanoma = tested on: SK-MEL-5 melanoma
# MCF7 breast = tested on: MCF7 breast
# SK-MEL-28 melanoma = tested on: SK-MEL-28 melanoma
# SF-268 CNS = tested on: SF-268 CNS
# UACC-257 melanoma = tested on: UACC-257 melanoma
# LOX IMVI melanoma = tested on: LOX IMVI melanoma
# M14 melanoma = tested on: M14 melanoma
# TK-10 renal = tested on: TK-10 renal
# K-562 leukemia = tested on: K-562 leukemia
# HCT-15 colon = tested on: HCT-15 colon
# T-47D breast = tested on: T-47D breast
# MOLT-4 leukemia = tested on: MOLT-4 leukemia
# MALME-3M melanoma = tested on: MALME-3M melanoma
# MDA-MB-435 = tested on: MDA-MB-435
# ACHN renal = tested on: ACHN renal
# EKVX NSCLC = tested on: EKVX NSCLC
# OVCAR-5 ovarian = tested on: OVCAR-5 ovarian
# HT29 colon = tested on: HT29 colon
smiles,measurement,setting,value
COCC(=O)Oc1cc(-c2ccc(C)cc2C)c(OC(=O)COC)c(-c2ccc(C)cc2C)c1,GI50,KM12 colon,4.45 µM
same,TGI,KM12 colon,19.5 µM
same,GI50,DU-145 prostate,10.3 µM
same,TGI,DU-145 prostate,30.2 µM
same,GI50,RXF 393 renal,11.2 µM
same,TGI,RXF 393 renal,46.1 µM
same,GI50,COLO 205 colon,8.76 µM
same,TGI,COLO 205 colon,23.8 µM
same,GI50,NCI-H522 lung,4.07 µM
same,TGI,NCI-H522 lung,18.3 µM
same,GI50,A498 renal,5.57 µM
same,TGI,A498 renal,19.9 µM
same,GI50,SF-295 CNS,5.58 µM
same,TGI,SF-295 CNS,29.6 µM
same,GI50,SW-620 colon,5.09 µM
same,TGI,SW-620 colon,18.3 µM
same,GI50,NCI-H23 lung,5.61 µM
same,TGI,NCI-H23 lung,23.4 µM
same,GI50,PC-3 prostate,0.824 µM
same,TGI,PC-3 prostate,35.1 µM
same,GI50,HCC-2998 colon,13.5 µM
same,TGI,HCC-2998 colon,28.9 µM
same,GI50,SR leukemia,1.59 µM
same,TGI,SR leukemia,> 100 µM
same,GI50,OVCAR-3 ovarian,3.64 µM
same,TGI,OVCAR-3 ovarian,16.5 µM
same,GI50,HCT-116 colon,0.797 µM
same,TGI,HCT-116 colon,14.4 µM
same,GI50,HOP-62 NSCLC,11.7 µM
same,TGI,HOP-62 NSCLC,28.1 µM
same,GI50,SF-539 CNS,12 µM
same,TGI,SF-539 CNS,28.8 µM
same,GI50,SN12C renal,9.11 µM
same,TGI,SN12C renal,28.7 µM
same,GI50,BT-549 breast,7.7 µM
same,TGI,BT-549 breast,22.9 µM
same,GI50,NCI/ADR-RES ovarian,5.84 µM
same,TGI,NCI/ADR-RES ovarian,55.3 µM
same,GI50,A549 NSCLC,4.73 µM
same,TGI,A549 NSCLC,29.1 µM
same,GI50,NCI-H460 lung,0.592 µM
same,TGI,NCI-H460 lung,13.7 µM
same,GI50,786-0 renal,10.7 µM
same,TGI,786-0 renal,48.3 µM
same,GI50,MDA-MB-231 breast,6.03 µM
same,TGI,MDA-MB-231 breast,26.5 µM
same,GI50,SK-OV-3 ovarian,13.2 µM
same,TGI,SK-OV-3 ovarian,61.5 µM
same,GI50,OVCAR-4 ovarian,3.33 µM
same,TGI,OVCAR-4 ovarian,23.6 µM
same,GI50,SNB-75 CNS,3.22 µM
same,TGI,SNB-75 CNS,20.4 µM
same,GI50,U251 CNS,2.02 µM
same,TGI,U251 CNS,23 µM
same,GI50,OVCAR-8 ovarian,4.51 µM
same,TGI,OVCAR-8 ovarian,90.3 µM
same,GI50,HL-60(TB) leukemia,2.21 µM
same,TGI,HL-60(TB) leukemia,77.4 µM
same,GI50,UO-31 renal,2.47 µM
same,TGI,UO-31 renal,15.5 µM
same,GI50,SK-MEL-2 melanoma,14.7 µM
same,TGI,SK-MEL-2 melanoma,33.9 µM
same,GI50,UACC-62 melanoma,3.43 µM
same,TGI,UACC-62 melanoma,31.9 µM
same,GI50,NCI-H226 lung,8.59 µM
same,TGI,NCI-H226 lung,46.9 µM
same,GI50,SNB-19 CNS,11.9 µM
same,TGI,SNB-19 CNS,43.6 µM
same,GI50,IGROV1 ovarian,5.56 µM
same,TGI,IGROV1 ovarian,25.3 µM
same,GI50,SK-MEL-5 melanoma,2.04 µM
same,TGI,SK-MEL-5 melanoma,15.7 µM
same,GI50,MCF7 breast,4.75 µM
same,TGI,MCF7 breast,51.4 µM
same,GI50,SK-MEL-28 melanoma,11.2 µM
same,TGI,SK-MEL-28 melanoma,23.6 µM
same,GI50,SF-268 CNS,3.91 µM
same,TGI,SF-268 CNS,23.9 µM
same,GI50,UACC-257 melanoma,8.23 µM
same,TGI,UACC-257 melanoma,35.9 µM
same,GI50,LOX IMVI melanoma,1.12 µM
same,TGI,LOX IMVI melanoma,15.5 µM
same,GI50,M14 melanoma,7.69 µM
same,TGI,M14 melanoma,21.6 µM
same,GI50,TK-10 renal,20.4 µM
same,TGI,TK-10 renal,> 100 µM
same,GI50,K-562 leukemia,3.56 µM
same,TGI,K-562 leukemia,> 100 µM
same,GI50,HCT-15 colon,0.58 µM
same,TGI,HCT-15 colon,> 100 µM
same,GI50,T-47D breast,4.52 µM
same,TGI,T-47D breast,54.9 µM
same,GI50,MOLT-4 leukemia,2.96 µM
same,TGI,MOLT-4 leukemia,> 100 µM
same,GI50,MALME-3M melanoma,9.2 µM
same,TGI,MALME-3M melanoma,25.5 µM
same,GI50,MDA-MB-435,6.62 µM
same,TGI,MDA-MB-435,30.2 µM
same,GI50,ACHN renal,9.07 µM
same,TGI,ACHN renal,> 100 µM
same,GI50,EKVX NSCLC,4.36 µM
same,TGI,EKVX NSCLC,58.9 µM
same,GI50,OVCAR-5 ovarian,21.7 µM
same,TGI,OVCAR-5 ovarian,61 µM
same,GI50,HT29 colon,4.02 µM
same,TGI,HT29 colon,21.8 µM

# Source: PubChem BioAssay (NCI)
